The results in this text go back to patent publication US5514694A, “Peptidyl ketoamides” (Georgia Tech Research Corp, priority 1993, dated 1996).

Where two headings read alike, the source gives them in different places.

Common to all, as to assay type: biochemical
In test [1] the target is calpain II from rabbit. In words: Calpain II inhibition, Suc-Leu-Tyr-AMC hydrolysis (KI). The note with it: read-out: KI Cal II. On the procedure: (§1) HEPES, heparin, and A23187 were obtained from Calbiochem. Suc-Leu-Tyr-AMC and chromogenic substrates were obtained from Sigma. Calpain I was purified from human erythrocytes according to the method of Kitahara (Kitahara et al., J. Biochem. 95, 1759-1766) omitting the Blue-Sepharose step. Calpain II from rabbit muscle and cathepsin B were purchased from Sigma. Papain was purchased from Calbiochem.
(§2) Peptide α-ketoamides were assayed as reversible enzyme inhibitors. Various concentrations of inhibitors in Me2 SO were added to the assay mixture which contained buffer and substrate. The reaction was started by the addition of the enzyme and the hydrolysis rates were followed spectrophotometrically or fluorimetrically.
(§3) Calpain I from human erythrocytes and calpain II from rabbit were assayed using Suc-Leu-Tyr-AMC Sasaki et al., J. Biol. Chem. 259, 12489-12494 (1984); incorporated herein by reference!, and the AMC (7-amino-4-methylcoumarin) release was followed fluorimetrically (excitation at 380 nm, and emmision at 460 nm). Calpains were assayed in 25 mM Tris pH=8.0, 10 mM CaC12. Fluorescence was followed using a Gilson FL-1A fluorometer or a Perkin-Elmer 203 Fluorescence spectrometer. Cathepsin B was assayed in 20 mM sodium acetate pH=5.2, 0.5 mM dithiothreitol using Bz-Phe-Val-Arg-p-nitroanilide as substrate. Alternately, cathepsin B was assayed with Z-Arg-Arg-AFC Barrett and Kirschke, Methods Enzymol. 80, 535-561 (1981); incorporated herein by reference!, and the AFC (7-amino-4-trifluoromethylcoumarin) release was followed fluorimetrically (excitation at 400 nm and emmision at 505 nm). Papain was assayed in 100 mM KPO4, 1 mM EDTA, 2.5 mM cysteine pH=6.0 using Bz-Arg-AMC or Bz-Arg-NA Kanaoka et al., Chem. Pharm. Bull. 25, 3126-3128 (1977); incorporated herein by reference! as a substrate. The AMC (7-amino-4-methylcoumarin) release was followed fluorimetrically (excitation at 380 nm, and emmision at 460 nm). Enzymatic hydrolysis rates were measured at various substrate and inhibitor concentrations, and KI values were determined by either Lineweaver-Burk plots or Dixon plots.
(§4) A 0.1M Hepes, 0.5M NaCl, pH 7.5 buffer was utilized for human leukocyte elastase (HLE), porcine pancreatic elastase (PPE), chymotrypsin and cathepsin G. A 0.1 Hepes, 0.01 M CaCl2, pH 7.5 buffer was utilized for trypsin, plasmin, and coagulation enzymes. A 50 mM Tris.HCl, 2 mM EDTA, 5 mM cysteine, pH 7.5 was used as a buffer for papain. A 88 mM KH2 PO4, 12 mM Na2 HPO4, 1.33 mM EDTA, 2.7 mM cysteine, pH 6.0 solution was used as a buffer for cathepsin B. A 20 mM Hepes, 10 mM CaCl2, 10 mM mercatoethanol, pH 7.2 buffer was utilized for calpain I and calpain II.

For test [2], the target named is T1, Calpain I from human erythrocytes (Homo sapiens, UniProt P07384).
T1 construct: Calpain I was purified from human erythrocytes; from tissue; host or cells: human erythrocytes
T1 sequence (P07384 1-714): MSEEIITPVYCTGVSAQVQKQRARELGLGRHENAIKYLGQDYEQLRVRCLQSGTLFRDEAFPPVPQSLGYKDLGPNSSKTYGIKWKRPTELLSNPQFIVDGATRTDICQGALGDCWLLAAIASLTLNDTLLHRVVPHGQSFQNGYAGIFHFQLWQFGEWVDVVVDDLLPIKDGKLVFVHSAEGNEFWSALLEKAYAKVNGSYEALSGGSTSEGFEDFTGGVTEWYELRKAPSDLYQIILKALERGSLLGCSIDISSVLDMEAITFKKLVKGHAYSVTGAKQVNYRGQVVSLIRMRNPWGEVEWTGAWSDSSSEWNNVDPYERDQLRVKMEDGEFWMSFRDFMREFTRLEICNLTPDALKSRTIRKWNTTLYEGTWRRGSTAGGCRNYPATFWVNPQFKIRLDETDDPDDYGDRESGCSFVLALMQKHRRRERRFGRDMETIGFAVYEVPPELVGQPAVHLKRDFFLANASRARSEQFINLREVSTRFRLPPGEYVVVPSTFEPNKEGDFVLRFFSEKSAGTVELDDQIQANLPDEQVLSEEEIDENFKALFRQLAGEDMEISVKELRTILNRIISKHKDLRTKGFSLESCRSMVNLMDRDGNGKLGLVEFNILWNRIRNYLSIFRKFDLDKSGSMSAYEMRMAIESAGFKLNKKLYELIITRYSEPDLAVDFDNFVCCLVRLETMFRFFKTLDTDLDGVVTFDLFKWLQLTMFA
T1 sequence (P04632 1-268 partner): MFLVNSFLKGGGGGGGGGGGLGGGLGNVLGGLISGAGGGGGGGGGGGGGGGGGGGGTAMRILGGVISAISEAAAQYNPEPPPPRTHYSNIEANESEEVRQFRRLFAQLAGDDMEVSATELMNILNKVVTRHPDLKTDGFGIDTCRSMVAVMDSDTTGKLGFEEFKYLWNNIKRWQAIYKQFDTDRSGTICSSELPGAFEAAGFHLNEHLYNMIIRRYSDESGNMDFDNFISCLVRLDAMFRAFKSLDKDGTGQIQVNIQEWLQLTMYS
The test is described as follows: Calpain I inhibition, Suc-Leu-Tyr-AMC hydrolysis (KI). The note with it: for Ki: read-out: KI Cal I. On the procedure:
as §1, §2, §3, §4

Test [3] has as its target T2, human leukocyte elastase (HLE) (Homo sapiens, UniProt P08246).
T2 sequence (P08246 30-267): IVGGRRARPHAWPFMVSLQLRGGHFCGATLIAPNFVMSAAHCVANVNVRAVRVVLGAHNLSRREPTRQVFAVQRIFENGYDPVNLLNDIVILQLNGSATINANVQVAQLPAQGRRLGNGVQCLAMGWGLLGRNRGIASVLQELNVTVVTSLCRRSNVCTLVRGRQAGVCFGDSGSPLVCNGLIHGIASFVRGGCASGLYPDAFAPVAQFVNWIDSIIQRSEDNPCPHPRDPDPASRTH
The test is described as follows: HLE inhibition, MeO-Suc-Ala-Ala-Pro-Val-NA hydrolysis. To be noted: Table 4, Z-Leu--AA--CONH-R. Here is the method: as §2, §4
HLE and PPE were assayed with MeO-Suc-Ala-Ala-Pro-Val-NA and Suc-Ala-Ala-Ala-NA, respectively Nakajima et al., J. Biol. Chem. 254, 4027-4032 (1979); incorporated herein by reference!. Human leukocyte cathepsin G and chymotrypsin Aα were assayed with Suc-Val-Pro-Phe-NA Tanaka et al., Biochemistry 24, 2040-2047 (1985); incorporated herein by reference!. The hydrolysis of peptide 4-nitroanilides was measured at 410 nm ε410 =8800 M^-1 cm^-1; Erlanger et al., Arch. Biochem. Biophys. 95, pp 271-278 (1961); incorporated herein by reference!. Trypsin, thrombin, human plasma kallikrein, porcine pancreatic kallikrein, human factor XIa, and human plasmin were assayed with Z-Arg-SBzl or Z-Gly-Arg-SBu-i McRae et al., Biochemistry 20, 7196-7206 (1981); incorporated herein by reference!. All peptide thioester hydrolysis rates were measured with assay mixtures containing 4,4'-dithiodipyridine ε324 =19800 M^-1 cm^-1; Grasetti & Murray, Arch. Biochem. Biophys. 119, 41-49 (1967); incorporated herein by reference!.

Where [4] appears, read: Table 2, Z-Leu--AA--CONH--CH2 CH(OH)-R.

Consider `CCC(NC(=O)C(CC(C)C)NC(=O)C(c1ccccc1)c1ccccc1)C(=O)C(=O)NCc1ccccn1` (stereo not drawn) [Ph2 CH-CO-Leu-Abu-CONH-CH2 -2-pyridyl, Ph2 CHCO-Leu-Abu-CONH-2-CH2 -Pyridyl], for which the Ki in test [1] (Table 3, M1 CO-Leu--AA--CONH-R) turned out to be 90 nM.
For `CC(C)CC(NC(=O)C(c1ccccc1)c1ccccc1)C(=O)NC(Cc1ccccc1)C(=O)C(=O)NCC(O)c1ccccc1` (stereo not drawn) [Ph2 CH-CO-Leu-Phe-CONH-CH2 CH(OH)Ph, Ph2 CHCO-Leu-Phe-CONH--CH2 CH(OH)Ph], the Ki in test [2] (Table 3, M1 CO-Leu--AA--CONH-R) was 10000 nM; in test [1] (Table 3, M1 CO-Leu--AA--CONH-R) it was 730 nM.
With `CCC(NC(=O)C(CC(C)C)NC(=O)OCc1ccccc1)C(=O)C(=O)NCCc1ccccn1` (stereo not drawn) [Z-Leu-Abu-CONH-(CH2)2 -2-pyridyl, Z-Leu-Abu-CONH--(CH2)2 -2-Pyridyl], the Ki in test [2] (Table 1, Z-Leu--AA--CONHR) came out at 410 nM; in test [1] (Table 1, Z-Leu--AA--CONHR) it was 470 nM.
Take `CCC(NC(=O)C(CC(C)C)NC(=O)OCc1ccccc1)C(=O)C(=O)NCCNC(=O)CCCCC1SCC2NC(=O)NC21` (stereo not drawn) [Z-Leu-Abu-CONH-(CH2)2 NH-biotinyl, Z-Leu-Abu-CONH--(CH2)2NH-Biotinyl]: the Ki in test [2] (Table 1, Z-Leu--AA--CONHR) amounted to 650 nM. Besides, the IC50 in test [3] stood at 38000 nM.
Turning to `CCC(NC(=O)C(CC(C)C)NC(=O)OCc1ccccc1)C(=O)C(=O)NCC(O)c1ccc(OCc2ccccc2)c(OCc2ccccc2)c1` (stereo not drawn) [Z-Leu-Abu-CONH--CH2 CH(OH)C6 H3 (3,4-(OCH2 Ph)2)], the Ki in test [2] (setting [4]) came to 230 nM. This compound registered an IC50 in test [3] of 64000 nM.
For `CCC(NC(=O)C(CC(C)C)NC(=O)OCc1ccccc1)C(=O)C(=O)NCC(O)c1cccc(Oc2cccc(C(F)(F)F)c2)c1` (stereo not drawn) [Z-Leu-Abu-CONH--CH2 CH(OH)C6 H4 -3-OC6 H4 (3-CF3)] the same measures were 70 nM and 30000 nM.
As for `CCC(NC(=O)C(CC(C)C)NC(=O)OCc1ccccc1)C(=O)C(=O)NCc1nc2c(c(=O)n(C)c(=O)n2C)n1C` (stereo not drawn) [Z-Leu-Abu-CONH-CH2 -8-caffeine, Z-Leu-Abu-CONH--CH2 -8-Caffeine], in test [2] (Table 1, Z-Leu--AA--CONHR), the Ki was 32000 nM. Moreover, the IC50 in test [3] came to 156000 nM.
For `CCC(NC(=O)C(CC(C)C)NC(=O)OCc1ccccc1)C(=O)C(=O)NCC(O)c1cccc(Oc2ccccc2)c1` (stereo not drawn) [Z-Leu-Abu-CONH-CH2 CH(OH)-C6 H4 (3-OPh), Z-Leu-Abu-CONH--CH2 CH(OH)C6 H4 (3-OPh)], the Ki in test [2] (setting [4]) amounted to 900 nM. It took 45000 nM to reach half-maximal inhibition in test [3] (IC50).
Taken in the same sequence, the figures for `CCC(NC(=O)C(CC(C)C)NC(=O)OCc1ccccc1)C(=O)C(=O)NCC(O)c1ccc(OC)cc1` (stereo not drawn) [Z-Leu-Abu-CONH-CH2 CH(OH)-C6 H4 (4-OCH3), Z-Leu-Abu-CONH--CH2 CH(OH)C6 H4 (4-OCH3)] were 240 nM and 32000 nM.
Regarding `CCC(NC(=O)C(CC(C)C)NC(=O)OCc1ccccc1)C(=O)C(=O)NCC(O)c1ccc(Oc2ccccc2)cc1` (stereo not drawn) [Z-Leu-Abu-CONH-CH2 CH(OH)-C6 H4 (4-OPh), Z-Leu-Abu-CONH--CH2 CH(OH)C6 H4 (4-OPh)], the Ki in test [2] (setting [4]) was determined as 100 nM. For the same compound, the IC50 in test [3] came out at 28000 nM.
Turning to `CCCC(NC(=O)C(CC(C)C)NC(=O)OCc1ccccc1)C(=O)C(=O)NCc1ccccn1` (stereo not drawn) [Z-Leu-Nva-CONH-CH2 -2-pyridyl, Z-Leu-Nva-CONH--CH2 -2-Pyridyl], the “inhibition of calpain I, in words” value in test [2] is “best inhibitor of calpain I”. In addition, the Ki in test [2] (Table 1, Z-Leu--AA--CONHR) was determined as 19 nM; in test [1] (Table 1, Z-Leu--AA--CONHR), 120 nM.
With `CCCC(NC(=O)C(CC(C)C)NC(=O)OCc1ccccc1)C(=O)C(=O)NCC(O)c1ccccc1` (stereo not drawn) [Z-Leu-Nva-CONH-CH2 CH(OH)-Ph, Z-Leu-Nva-CONH--CH2 CH(OH)Ph], the Ki in test [2] (setting [4]) was found to be 7800 nM; in test [1] (setting [4]), 11000 nM.
Regarding “Z-Leu-Abu-CONH--(CH2)2 C6 H4 (4-OH) [Z-Leu-Abu-CONH-(CH2)2 C6 H4 (4-OH)]”, the Ki came out at 380 nM in test [2] (Table 1, Z-Leu--AA--CONHR) and 60 nM in test [1] (Table 1, Z-Leu--AA--CONHR).
Take “Z-Leu-Abu-CONH--CH2 CH(OH)C6 F5 [Z-Leu-Abu-CONH-CH2 CH(OH)-C6 F5]”: in test [2], the “inhibition of calpain I, in words” value is “best inhibitor for calpain I”. Further, the Ki in test [2] (setting [4]) came to 50 nM. Besides, the IC50 in test [3] stood at 44000 nM.
